Experimental data taken from PubChem BioAssay (NCI).
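Protocol summary: plate cells (96-well), add compound at 5 concentrations, incubate 48 h, interpolate endpoints linearly. GI50 marks 50% less growth. TGI marks complete inhibition of growth.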

Tests used:
Assay in all cases: NCI-60 cell line screen, 48 h
786-0 renal = system: 786-0 renal
A498 renal = system: A498 renal
A549 NSCLC = system: A549 NSCLC
ACHN renal = system: ACHN renal
BT-549 breast = system: BT-549 breast
CAKI-1 renal = system: CAKI-1 renal
CCRF-CEM leukemia = system: CCRF-CEM leukemia
COLO 205 colon = system: COLO 205 colon
DU-145 prostate = system: DU-145 prostate
EKVX NSCLC = system: EKVX NSCLC
HCC-2998 colon = system: HCC-2998 colon
HCT-116 colon = system: HCT-116 colon
HCT-15 colon = system: HCT-15 colon
HL-60(TB) leukemia = system: HL-60(TB) leukemia
HOP-62 NSCLC = system: HOP-62 NSCLC
HOP-92 NSCLC = system: HOP-92 NSCLC
HS 578T breast = system: HS 578T breast
HT29 colon = system: HT29 colon
IGROV1 ovarian = system: IGROV1 ovarian
K-562 leukemia = system: K-562 leukemia
KM12 colon = system: KM12 colon
LOX IMVI melanoma = system: LOX IMVI melanoma
M14 melanoma = system: M14 melanoma
MALME-3M melanoma = system: MALME-3M melanoma
MCF7 breast = system: MCF7 breast
MDA-MB-231 breast = system: MDA-MB-231 breast
MDA-MB-435 = system: MDA-MB-435
MOLT-4 leukemia = system: MOLT-4 leukemia
NCI-H226 lung = system: NCI-H226 lung
NCI-H23 lung = system: NCI-H23 lung
NCI-H460 lung = system: NCI-H460 lung
NCI-H522 lung = system: NCI-H522 lung
NCI/ADR-RES ovarian = system: NCI/ADR-RES ovarian
OVCAR-4 ovarian = system: OVCAR-4 ovarian
OVCAR-5 ovarian = system: OVCAR-5 ovarian
OVCAR-8 ovarian = system: OVCAR-8 ovarian
PC-3 prostate = system: PC-3 prostate
RPMI-8226 leukemia = system: RPMI-8226 leukemia
RXF 393 renal = system: RXF 393 renal
SF-268 CNS = system: SF-268 CNS
SF-295 CNS = system: SF-295 CNS
SF-539 CNS = system: SF-539 CNS
SK-MEL-2 melanoma = system: SK-MEL-2 melanoma
SK-MEL-28 melanoma = system: SK-MEL-28 melanoma
SK-MEL-5 melanoma = system: SK-MEL-5 melanoma
SK-OV-3 ovarian = system: SK-OV-3 ovarian
SN12C renal = system: SN12C renal
SNB-19 CNS = system: SNB-19 CNS
SNB-75 CNS = system: SNB-75 CNS
SW-620 colon = system: SW-620 colon
T-47D breast = system: T-47D breast
TK-10 renal = system: TK-10 renal
U251 CNS = system: U251 CNS
UACC-257 melanoma = system: UACC-257 melanoma
UACC-62 melanoma = system: UACC-62 melanoma
UO-31 renal = system: UO-31 renal

CC(C)(C)c1cc(NC(=O)Nc2ccc(-c3cn4c5c(sc4n3)CCc3c[nH]cc3-5)cc2)no1
GI50 (786-0 renal): 754 nM | TGI (786-0 renal): 2100 nM | GI50 (A498 renal): 1040 nM | TGI (A498 renal): 2620 nM | GI50 (A549 NSCLC): 2020 nM | TGI (A549 NSCLC): > 50 µM | GI50 (ACHN renal): 1980 nM | TGI (ACHN renal): > 50 µM | GI50 (BT-549 breast): 1310 nM | TGI (BT-549 breast): 4.22 µM | GI50 (CAKI-1 renal): 1490 nM | TGI (CAKI-1 renal): > 50 µM | GI50 (CCRF-CEM leukemia): 1790 nM | TGI (CCRF-CEM leukemia): > 50 µM | GI50 (COLO 205 colon): 1000 nM | TGI (COLO 205 colon): 2230 nM | GI50 (DU-145 prostate): 2310 nM | TGI (DU-145 prostate): > 50 µM | GI50 (EKVX NSCLC): 2050 nM | TGI (EKVX NSCLC): > 50 µM | GI50 (HCC-2998 colon): 1680 nM | TGI (HCC-2998 colon): 7.49 µM | GI50 (HCT-116 colon): 1700 nM | TGI (HCT-116 colon): 12.5 µM | GI50 (HCT-15 colon): 1190 nM | TGI (HCT-15 colon): 4.28 µM | GI50 (HL-60(TB) leukemia): 1510 nM | TGI (HL-60(TB) leukemia): > 50 µM | GI50 (HOP-62 NSCLC): 1150 nM | TGI (HOP-62 NSCLC): 2740 nM | GI50 (HOP-92 NSCLC): 1060 nM | TGI (HOP-92 NSCLC): 3.67 µM | GI50 (HS 578T breast): 950 nM | TGI (HS 578T breast): 2940 nM | GI50 (HT29 colon): 949 nM | TGI (HT29 colon): 1920 nM | GI50 (IGROV1 ovarian): 2360 nM | TGI (IGROV1 ovarian): > 50 µM | GI50 (K-562 leukemia): 1240 nM | TGI (K-562 leukemia): > 50 µM | GI50 (KM12 colon): 1550 nM | TGI (KM12 colon): 6.1 µM | GI50 (LOX IMVI melanoma): 1300 nM | TGI (LOX IMVI melanoma): 3.23 µM | GI50 (M14 melanoma): 1450 nM | TGI (M14 melanoma): 4.9 µM | GI50 (MALME-3M melanoma): 1440 nM | TGI (MALME-3M melanoma): 4.06 µM | GI50 (MCF7 breast): 1080 nM | TGI (MCF7 breast): 3.12 µM | GI50 (MDA-MB-231 breast): 2000 nM | TGI (MDA-MB-231 breast): 18.1 µM | GI50 (MDA-MB-435): 1970 nM | TGI (MDA-MB-435): > 50 µM | GI50 (MOLT-4 leukemia): 1260 nM | TGI (MOLT-4 leukemia): > 50 µM | GI50 (NCI-H226 lung): 2280 nM | TGI (NCI-H226 lung): > 50 µM | GI50 (NCI-H23 lung): 1420 nM | TGI (NCI-H23 lung): 4.87 µM | GI50 (NCI-H460 lung): 1570 nM | TGI (NCI-H460 lung): 5.34 µM | GI50 (NCI-H522 lung): 1690 nM | TGI (NCI-H522 lung): 6.7 µM | GI50 (NCI/ADR-RES ovarian): 1890 nM | TGI (NCI/ADR-RES ovarian): > 50 µM | GI50 (OVCAR-4 ovarian): 2620 nM | TGI (OVCAR-4 ovarian): > 50 µM | GI50 (OVCAR-5 ovarian): 2960 nM | TGI (OVCAR-5 ovarian): > 50 µM | GI50 (OVCAR-8 ovarian): 2480 nM | TGI (OVCAR-8 ovarian): > 50 µM | GI50 (PC-3 prostate): 1540 nM | TGI (PC-3 prostate): > 50 µM | GI50 (RPMI-8226 leukemia): 1080 nM | TGI (RPMI-8226 leukemia): 4.14 µM | GI50 (RXF 393 renal): 333 nM | TGI (RXF 393 renal): 1800 nM | GI50 (SF-268 CNS): 1920 nM | TGI (SF-268 CNS): 16.5 µM | GI50 (SF-295 CNS): 738 nM | TGI (SF-295 CNS): 1740 nM | GI50 (SF-539 CNS): 875 nM | TGI (SF-539 CNS): 4.17 µM | GI50 (SK-MEL-2 melanoma): 1240 nM | TGI (SK-MEL-2 melanoma): 3.15 µM | GI50 (SK-MEL-28 melanoma): 1540 nM | TGI (SK-MEL-28 melanoma): 9.5 µM | GI50 (SK-MEL-5 melanoma): 1020 nM | TGI (SK-MEL-5 melanoma): 2110 nM | GI50 (SK-OV-3 ovarian): 2120 nM | TGI (SK-OV-3 ovarian): 31.3 µM | GI50 (SN12C renal): 3 µM | TGI (SN12C renal): > 50 µM | GI50 (SNB-19 CNS): 1580 nM | TGI (SNB-19 CNS): > 50 µM | GI50 (SNB-75 CNS): 990 nM | TGI (SNB-75 CNS): 4.01 µM | GI50 (SW-620 colon): 2130 nM | TGI (SW-620 colon): 15 µM | GI50 (T-47D breast): 1190 nM | TGI (T-47D breast): 3.75 µM | GI50 (TK-10 renal): 3.41 µM | TGI (TK-10 renal): > 50 µM | GI50 (U251 CNS): 738 nM | TGI (U251 CNS): 3.78 µM | GI50 (UACC-257 melanoma): 2310 nM | TGI (UACC-257 melanoma): 13.9 µM | GI50 (UACC-62 melanoma): 1640 nM | TGI (UACC-62 melanoma): 5.88 µM | GI50 (UO-31 renal): 1330 nM | TGI (UO-31 renal): 3.9 µM
